Data from patent US6361595B1, “Process for the preparation of pigment compositions” (Ciba Specialty Chemicals Corporation, priority 1999, dated 2002).
Where “and” joins values, the source holds several entries; their conditions need not be identical. Identical values can stand only once. Values belong to the compound of their own block, whether it stands above or below them.

Legend:
[1] = system: mixed culture of Gram-positive cocci, Gram-negative cocci, Gram-positive rods and Gram-negative rods; assay: Microbial contamination of dried Pigment Yellow 74 powder (Example 1 procedure) after mixing filter cake with bacterial culture; type: cell-based, bacteria; settings: PY74, 3 parts dibutyl sebacate, plate 30° C. 48 hours
Description: (§1) Susceptibility to microbial contamination is assessed according to the following procedure:
(§2) Microbial contamination is assessed using individual bacteria of the morphological types, Gram-positive cocci, Gram-negative cocci, Gram-positive rods and Gram-negative rods which are maintained on Nutrient Agar slopes. When required, each is cultured in Nutrient broth at 30° C. until an organism count of >10^8 colony-forming units (cfu) per milliliter (ml) is reached. The individual cultures are then mixed in equal proportions to provide a mixed culture which is then used immediately.
(§3) 23.3 parts of acetic acid (80%) are added to a solution of 55 parts of acetoacet-o-anisidide dissolved in a solution of 25.5 parts of sodium hydroxide (47%) in 450 parts of water at a temperature of 0° C. The resultant slurry is reacted with 42.5 parts of p-nitro-o-anisidine previously diazotised with 45.4 parts of sodium nitrite (37%) and 56 parts of hydrochloric acid (36%) in the usual manner with simultaneous addition of sodium hydroxide solution (10%) to maintain pH 5.5-6.0. To the coupled slurry are then added 3 parts of dibutyl sebacate and 1 part of dimethylbenzyl-C12-14alkylammonium chloride (100% active) and the mixture is heated to a temperature of 100° C. and maintained at this temperature for one hour. The product is then filtered and washed with water under vacuum to remove soluble salts. The filter cake(still under vacuum suction) is mixed with a bacterial culture (10 ml of culture diluted to 100 ml with water)and vacuum suction is maintained until no further liquid emanates from the filter cake. The filter cake, without further washing, is then dried and converted to a powder by grinding. The powder is then passed through a 150 micron sieve.
The procedure described in Example 1 is repeated, but varying the type of biocide and amount of biocide used. The procedure for determining the extent of microbial contamination is as follows:
(§4) 10 mg of the sieved powder and one drop of sterile water are evenly spread on a Nutrient Agar plate with a glass spreader under aseptic conditions and the plate incubated at 30° C. for 48 hours, The number of bacterial colonies evident on each plate are then counted and expressed as the number of colony-forming units per gram (cfu/g).

[2] = Colour strength on storage of pigment powder, tested in alkyd paint system; type: physicochemical
Description: The dried pigments are incorporated in a conventional manner into an alkyd paint system (SORBAL®P470, an alkyd resin ex DSM resins Ltd. having a solids content of 70%, white spirit, pigment and driers solution).
The dried powders are each divided into two portions. One portion is tested in the paint system immediately after drying. […] The tinting strengths are assessed visually and instrumentally.
The values correspond to the instrumentally-measured colour strength for the same pigment content in the paint.

[3] = system: mixed culture of Gram-positive cocci, Gram-negative cocci, Gram-positive rods and Gram-negative rods; assay: Microbial contamination of dried Pigment Yellow 13 powder (Example 5 procedure) after mixing filter cake with bacterial culture; type: cell-based, bacteria; settings: PY13, no DBS
Description: as §1, §2, §4
A solution of 8.9 parts of acetic acid (100%) and 15 parts hydrochloric acid (36%) in 100 parts water are added to a solution of 63 parts of acetoacet-m-xylidide dissolved in a solution of 25.2 parts of sodium hydroxide (50%) in 676 parts of water at a temperature of 20° C. The resultant slurry is reacted with 36.9 parts of a previously tetrazotised solution of 3,3′-dichlorobenzidine, with simultaneous addition of sodium hydroxide solution (10%) to maintain pH 4.5-5.5. […] The product is then filtered and washed with water under vacuum to remove soluble salts. The filter cake (still under vacuum suction) is mixed with a bacterial culture (10 ml of culture diluted to 100 ml with water) and vacuum suction is maintained until no further liquid emanates from the filter cake. The filter cake, without further washing, is then dried and converted to a powder by grinding. The powder is then passed through a 150 micron sieve.

[4] = system: mixed culture of Gram-positive cocci, Gram-negative cocci, Gram-positive rods and Gram-negative rods; assay: Microbial contamination of dried Pigment Yellow 65 powder (Example 2 procedure) after mixing filter cake with bacterial culture; type: cell-based, bacteria
Description: as §1, §2, §4
as §3, with “(100%)” for “(80%)”, “o-nitro-p-anisidine” for “p-nitro-o-anisidine”, “cake (still” for “cake(still”, “water) and” for “water)and”
The procedure described in Example 2 is repeated, but varying the type of biocide and amount of biocide used.
The procedure described in Example 2 is repeated, but varying the type of biocide and amount of biocide used and omitting the DBS.

[5] = PY65, omitting the DBS, 0.5 parts biocide
[6] = PY65, omitting the DBS, 1.0 parts biocide
[7] = PY65, omitting the DBS, 3.0 parts biocide
[8] = PY65, omitting the DBS, 5.0 parts biocide
[9] = PY65, with 3 parts dibutyl sebacate, 0.5 parts biocide
[10] = PY65, with 3 parts dibutyl sebacate, 1.0 parts biocide
[11] = PY65, with 3 parts dibutyl sebacate, 3.0 parts biocide
[12] = PY65, with 3 parts dibutyl sebacate, 5.0 parts biocide

Compound: Methylbenzyl-di-C16-18-alkylammonium chloride [Example M2HTB]
microbial contamination, colony-forming units per gram ([1]; 0.5 parts biocide): >10^4 cfu/g
microbial contamination, colony-forming units per gram ([1]; 1.0 parts biocide): 0 cfu/g
microbial contamination, colony-forming units per gram ([1]; 3.0 parts biocide): 0 cfu/g
microbial contamination, colony-forming units per gram ([1]; 5.0 parts biocide): 0 cfu/g

loss of strength ([2]; initial versus last storage time at ambient temperature): 36 and 26 and 42
amount of Pigment required, 3 weeks ([2]; powder stored at ambient temperature 3 weeks): 105 and 104
amount of Pigment required, 6 weeks ([2]; powder stored at ambient temperature 6 weeks): 105 and 108
colour strength, initial ([2]; powder tested immediately after drying, instrumentally-measured colour strength): 141 and 134 and 146
Compound: COc1cc([N+](=O)[O-])ccc1/N=N/C(C(C)=O)C(=O)Nc1ccccc1OC (centres unmarked) [C.I. Pigment Yellow 74]

Compound: Benzyldimethyl-C16-18-alkylammonium chloride [DMHTB]
microbial contamination, colony-forming units per gram ([1]; 0.5 parts biocide): >10^4 cfu/g
microbial contamination, colony-forming units per gram ([1]; 1.0 parts biocide): 0 cfu/g
microbial contamination, colony-forming units per gram ([1]; 3.0 parts biocide): 0 cfu/g
microbial contamination, colony-forming units per gram ([1]; 5.0 parts biocide): 0 cfu/g

Compound: Methylbis-(2-hydroxyethyl)-C12-14-alkylammonium chloride [EthO-12]
microbial contamination, colony-forming units per gram ([1]; 0.5 parts biocide): >10^4 cfu/g
microbial contamination, colony-forming units per gram ([1]; 1.0 parts biocide): 0 cfu/g
microbial contamination, colony-forming units per gram ([1]; 3.0 parts biocide): 0 cfu/g
microbial contamination, colony-forming units per gram ([1]; 5.0 parts biocide): 0 cfu/g

Compound: CCCCCCCCn1sccc1=O [OTW, n-Octylisothiazolin-3-one]
microbial contamination, colony-forming units per gram ([1]; 0.5 parts biocide): >10^4 cfu/g
microbial contamination, colony-forming units per gram ([1]; 1.0 parts biocide): 2.0 × 10^4 cfu/g
microbial contamination, colony-forming units per gram ([1]; 3.0 parts biocide): >10^4 cfu/g
microbial contamination, colony-forming units per gram ([1]; 5.0 parts biocide): 1.4 × 10^3 cfu/g
microbial contamination, colony-forming units per gram ([3]; 0.5 parts biocide): >10^4 cfu/g
microbial contamination, colony-forming units per gram ([3]; 1.0 parts biocide): 5.0 × 10^3 cfu/g
microbial contamination, colony-forming units per gram ([3]; 3.0 parts biocide): 0 cfu/g
microbial contamination, colony-forming units per gram ([3]; 5.0 parts biocide): 0 cfu/g
microbial contamination, colony-forming units per gram [4, 5]: >10^4 cfu/g
microbial contamination, colony-forming units per gram [4, 6]: >10^4 cfu/g
microbial contamination, colony-forming units per gram [4, 7]: >10^3 cfu/g
microbial contamination, colony-forming units per gram [4, 8]: >10^3 cfu/g
microbial contamination, colony-forming units per gram [4, 9]: >10^4 cfu/g
microbial contamination, colony-forming units per gram [4, 10]: >10^4 cfu/g
microbial contamination, colony-forming units per gram [4, 11]: >10^4 cfu/g
microbial contamination, colony-forming units per gram [4, 12]: 0 cfu/g

Compound: Dimethyl-di-C12-14-alkylammonium chloride [Example 2C-75]
microbial contamination, colony-forming units per gram ([1]; 0.5 parts biocide): 8.0 × 10^4 cfu/g
microbial contamination, colony-forming units per gram ([1]; 1.0 parts biocide): 0 cfu/g
microbial contamination, colony-forming units per gram ([1]; 3.0 parts biocide): 0 cfu/g
microbial contamination, colony-forming units per gram ([1]; 5.0 parts biocide): 0 cfu/g

Compound: Cn1sccc1=O [MIT, Methylisothiazolin-3-one]
microbial contamination, colony-forming units per gram ([1]; 0.5 parts biocide): 8.0 × 10^3 cfu/g
microbial contamination, colony-forming units per gram ([1]; 1.0 parts biocide): 1.0 × 10^4 cfu/g
microbial contamination, colony-forming units per gram ([1]; 3.0 parts biocide): 3.0 × 10^3 cfu/g
microbial contamination, colony-forming units per gram ([1]; 5.0 parts biocide): 1.0 × 10^4 cfu/g
microbial contamination, colony-forming units per gram ([3]; 0.5 parts biocide): >10^4 cfu/g
microbial contamination, colony-forming units per gram ([3]; 1.0 parts biocide): 4.0 × 10^3 cfu/g
microbial contamination, colony-forming units per gram ([3]; 5.0 parts biocide): 9.0 × 10^2 cfu/g
microbial contamination, colony-forming units per gram [4, 5]: >10^5 cfu/g
microbial contamination, colony-forming units per gram [4, 6]: >10^5 cfu/g
microbial contamination, colony-forming units per gram [4, 7]: >10^5 cfu/g
microbial contamination, colony-forming units per gram [4, 8]: >10^5 cfu/g
microbial contamination, colony-forming units per gram [4, 9]: >10^4 cfu/g
microbial contamination, colony-forming units per gram [4, 10]: >10^3 cfu/g
microbial contamination, colony-forming units per gram [4, 11]: >10^3 cfu/g
microbial contamination, colony-forming units per gram [4, 12]: 0 cfu/g

Compound: Trimethyl-di-C12-14-alkylammonium chloride [Example C-35]
microbial contamination, colony-forming units per gram ([1]; 0.5 parts biocide): >10^4 cfu/g
microbial contamination, colony-forming units per gram ([1]; 1.0 parts biocide): 4.5 × 10^3 cfu/g
microbial contamination, colony-forming units per gram ([1]; 3.0 parts biocide): 0 cfu/g
microbial contamination, colony-forming units per gram ([1]; 5.0 parts biocide): 0 cfu/g

Compound: CCCCn1sc2ccccc2c1=O [DN, n-Butylbenzisothiazolin-3-one]
microbial contamination, colony-forming units per gram ([1]; 0.5 parts biocide): >10^4 cfu/g
microbial contamination, colony-forming units per gram ([1]; 1.0 parts biocide): >10^4 cfu/g
microbial contamination, colony-forming units per gram ([1]; 3.0 parts biocide): >10^3 cfu/g
microbial contamination, colony-forming units per gram ([1]; 5.0 parts biocide): 0 cfu/g
microbial contamination, colony-forming units per gram [4, 9]: >10^4 cfu/g
microbial contamination, colony-forming units per gram [4, 10]: >10^4 cfu/g
microbial contamination, colony-forming units per gram [4, 11]: >10^4 cfu/g
microbial contamination, colony-forming units per gram [4, 12]: 8.0 × 10^2 cfu/g

Compound: O=c1[nH]sc2ccccc12 [LV, 1,2-Benzisothiazolin-3-one]
microbial contamination, colony-forming units per gram ([1]; 0.5 parts biocide): >10^5 cfu/g
microbial contamination, colony-forming units per gram ([1]; 1.0 parts biocide): >10^5 cfu/g
microbial contamination, colony-forming units per gram ([1]; 3.0 parts biocide): >10^5 cfu/g
microbial contamination, colony-forming units per gram ([1]; 5.0 parts biocide): >10^5 cfu/g
microbial contamination, colony-forming units per gram ([3]; 0.5 parts biocide): 3.0 × 10^3 cfu/g
microbial contamination, colony-forming units per gram ([3]; 1.0 parts biocide): 4.0 × 10^2 cfu/g
microbial contamination, colony-forming units per gram ([3]; 3.0 parts biocide): 1.0 × 10^2 cfu/g
microbial contamination, colony-forming units per gram ([3]; 5.0 parts biocide): 6.0 × 10^2 cfu/g
microbial contamination, colony-forming units per gram [4, 5]: >10^4 cfu/g
microbial contamination, colony-forming units per gram [4, 6]: >10^4 cfu/g
microbial contamination, colony-forming units per gram [4, 7]: >10^4 cfu/g
microbial contamination, colony-forming units per gram [4, 8]: >10^4 cfu/g
microbial contamination, colony-forming units per gram [4, 9]: >10^4 cfu/g
microbial contamination, colony-forming units per gram [4, 10]: >10^4 cfu/g
microbial contamination, colony-forming units per gram [4, 11]: >10^4 cfu/g
microbial contamination, colony-forming units per gram [4, 12]: >10^4 cfu/g

Compound: Tetrakishydroxymethylphosphonium sulphate [THPS]
microbial contamination, colony-forming units per gram ([1]; 0.5 parts biocide): >10^5 cfu/g
microbial contamination, colony-forming units per gram ([1]; 1.0 parts biocide): >10^5 cfu/g
microbial contamination, colony-forming units per gram ([1]; 3.0 parts biocide): >10^5 cfu/g
microbial contamination, colony-forming units per gram ([1]; 5.0 parts biocide): >10^5 cfu/g
microbial contamination, colony-forming units per gram ([3]; 0.5 parts biocide): >10^4 cfu/g
microbial contamination, colony-forming units per gram ([3]; 1.0 parts biocide): >10^4 cfu/g
microbial contamination, colony-forming units per gram ([3]; 3.0 parts biocide): >10^4 cfu/g
microbial contamination, colony-forming units per gram ([3]; 5.0 parts biocide): >10^4 cfu/g
microbial contamination, colony-forming units per gram [4, 5]: >10^5 cfu/g
microbial contamination, colony-forming units per gram [4, 6]: >10^5 cfu/g
microbial contamination, colony-forming units per gram [4, 7]: >10^5 cfu/g
microbial contamination, colony-forming units per gram [4, 8]: >10^5 cfu/g
microbial contamination, colony-forming units per gram [4, 9]: >10^5 cfu/g
microbial contamination, colony-forming units per gram [4, 10]: >10^5 cfu/g
microbial contamination, colony-forming units per gram [4, 11]: >10^5 cfu/g
microbial contamination, colony-forming units per gram [4, 12]: >10^5 cfu/g
